The values below are quoted from earlier work in patent US20080182823A1, “POLYMER-LINKED-BIOPHOSPHONATE INHALANT FORMULATIONS AND METHODS FOR USING THE SAME” (priority 2007, published 2008).

This data set concerns antral mucosa. The conditions noted are these: rat models; Lichtenberger et al., Dig. Dis. Sci. 45(9):1792-1801, 2000.

As to `NCCCC(O)(P(=O)(O)O)P(=O)(O)O` [alendronate, (4-amino-1-hydroxybutylidene)-bis-phosphonate], the antral mucosal injury entry is “cause antral mucosal injury”.
On to `O=P(O)(O)C(O)(Cc1cccnc1)P(=O)(O)O` [risedronate, [1-Hydroxy-2-(3-pyridinyl)-ethylidine] bis-phosphonate], for which the antral mucosal injury entry is “cause antral mucosal injury”.
